# Legend:
# [1] = Cytotoxicity against human KATO III cells after 3 days by MTT assay; format: functional, cell-based, KATO III cell; details: 72 h
# HepG2 = assay: Cytotoxicity against human HepG2 cells after 3 days by MTT assay; format: functional, cell-based; details: HepG2, 72 h
# BT-474 = assay: Cytotoxicity against human BT474 cells after 3 days by MTT assay; format: functional, cell-based; details: BT-474, 72 h
# SW-620 = assay: Cytotoxicity against human SW620 cells after 3 days by MTT assay; format: functional, cell-based; details: SW-620, 72 h
# [2] = Cytotoxicity against human ChaGo cells after 3 days by MTT assay; format: functional, cell-based; details: 72 h
Compound,IC50 [1],IC50 (HepG2),IC50 (BT-474),IC50 (SW-620),IC50 [2]
C=C1C(=O)O[C@@H]2C[C@@H]3[C@]4(CC[C@]5(C)[C@@H]([C@H](C)CCC=C(C)C)CC[C@@]35C)C[C@]4(CCC(=O)O)[C@H]12 [SOOTEPIN B],3.68 mg/L,5.86 mg/L,4.98 mg/L,5.57 mg/L,5.24 mg/L
C=C(CO)[C@@H]1CC[C@H]2[C@]3(CC[C@]4(C)[C@@H]([C@H](C)CCC=C(C)C)CC[C@@]24C)C[C@]13CCC(=O)O [SECAUBRYENOL],> 10 mg/L,> 10 mg/L,> 10 mg/L,> 10 mg/L,> 10 mg/L
C=C1C(=O)O[C@@H]2C[C@@H]3[C@]4(CC[C@]5(C)[C@@H]([C@H](C)CC/C=C(\C)C=O)CC[C@@]35C)C[C@]4(CCC(=O)O)[C@H]12 [CORONALOLIDE],5.85 mg/L,6.41 mg/L,6.59 mg/L,4.98 mg/L,5.42 mg/L
C=C(CO)[C@@H]1CC[C@@H]2[C@]3(CC[C@]4(C)[C@@H]([C@H](C)CC/C=C(\C)C=O)CC[C@@]24C)C[C@]13CCC(=O)OC [SOOTEPIN D],7.35 mg/L,> 10 mg/L,> 10 mg/L,> 10 mg/L,> 10 mg/L
C=C(CO)[C@@H]1CC[C@@H]2[C@]3(CC[C@]4(C)[C@@H]([C@H](C)CCC=C(C)C)CC[C@@]24C)C[C@]13CCC(=O)OC [SOOTEPIN C],7.79 mg/L,3.49 mg/L,> 10 mg/L,> 10 mg/L,> 10 mg/L
C=C1C(=O)O[C@H]2C[C@@H]3[C@@]4(CC[C@]5(C)[C@H]([C@@H](C)CC/C=C(\C)C=O)CC[C@@]35C)C[C@]4(CCC(=O)OC)[C@@H]12 [CORONALOLIDE METHYL ESTER],8.64 mg/L,6.8 mg/L,> 10 mg/L,6.19 mg/L,> 10 mg/L
C=C1C(=O)O[C@@H]2C[C@@H]3[C@]4(CC[C@]5(C)[C@@H]([C@H](C)CCC=C(C)C)CC[C@@]35C)C[C@]4(CCC(=O)OC)[C@H]12 [TUBIFEROLIDE METHYL ESTER],4.9 mg/L,3.41 mg/L,5.33 mg/L,5.78 mg/L,4.08 mg/L
COc1cccc2c1C(=O)c1c(O)c3c(c(O)c1C2=O)C[C@@](O)(C(=O)CO)C[C@@H]3O[C@H]1C[C@H](N)[C@H](O)[C@H](C)O1 [DOXORUBICIN],5.45 mg/L,3.36 mg/L,8.92 mg/L,> 10 mg/L,3.98 mg/L
C=C1C(=O)O[C@@H]2C[C@@H]3[C@]4(CC[C@]5(C)[C@@H]([C@H](C)CC/C=C(\C)CO)CC[C@@]35C)C[C@]4(CCC(=O)OC)[C@H]12 [SOOTEPIN A],2.1 mg/L,2.9 mg/L,5.92 mg/L,1.8 mg/L,3.97 mg/L
C=C(C)[C@@H]1CC[C@@H]2[C@]3(CC[C@]4(C)[C@@H]([C@H](C)CCC=C(C)C)CC[C@@]24C)C[C@]13CCC(=O)O [SOOTEPIN E],1.91 mg/L,3.14 mg/L,6.07 mg/L,4.22 mg/L,5.2 mg/L

# Source: ChEMBL document CHEMBL1153026, “Cytotoxic 3,4-seco-cycloartane triterpenes from Gardenia sootepensis” (J Nat Prod, 2009)
